US11492335B2, “Aryl or heteroaryl triazolone derivatives or salts thereof, or pharmaceutical compositions comprising the same” (YUHAN CORPORATION, priority 2018, dated 2022)
Structures can show the parent of a compound that is named as a salt.

Columns and labels:
Format in all cases: biochemical
recombinant human VAP-1 = molecular target: T1, recombinant human VAP-1 (Homo sapiens, UniProt Q16853); test: Activity on recombinant human VAP-1, Amplex Red HRP-coupled hydrogen peroxide assay, benzylamine substrate; settings: recombinant human VAP-1, benzylamine substrate; read-out: Inhibitory Activity (IC50, nM) human VAP-1
T1 construct: purchased R&D systems
T1 sequence (Q16853 1-763): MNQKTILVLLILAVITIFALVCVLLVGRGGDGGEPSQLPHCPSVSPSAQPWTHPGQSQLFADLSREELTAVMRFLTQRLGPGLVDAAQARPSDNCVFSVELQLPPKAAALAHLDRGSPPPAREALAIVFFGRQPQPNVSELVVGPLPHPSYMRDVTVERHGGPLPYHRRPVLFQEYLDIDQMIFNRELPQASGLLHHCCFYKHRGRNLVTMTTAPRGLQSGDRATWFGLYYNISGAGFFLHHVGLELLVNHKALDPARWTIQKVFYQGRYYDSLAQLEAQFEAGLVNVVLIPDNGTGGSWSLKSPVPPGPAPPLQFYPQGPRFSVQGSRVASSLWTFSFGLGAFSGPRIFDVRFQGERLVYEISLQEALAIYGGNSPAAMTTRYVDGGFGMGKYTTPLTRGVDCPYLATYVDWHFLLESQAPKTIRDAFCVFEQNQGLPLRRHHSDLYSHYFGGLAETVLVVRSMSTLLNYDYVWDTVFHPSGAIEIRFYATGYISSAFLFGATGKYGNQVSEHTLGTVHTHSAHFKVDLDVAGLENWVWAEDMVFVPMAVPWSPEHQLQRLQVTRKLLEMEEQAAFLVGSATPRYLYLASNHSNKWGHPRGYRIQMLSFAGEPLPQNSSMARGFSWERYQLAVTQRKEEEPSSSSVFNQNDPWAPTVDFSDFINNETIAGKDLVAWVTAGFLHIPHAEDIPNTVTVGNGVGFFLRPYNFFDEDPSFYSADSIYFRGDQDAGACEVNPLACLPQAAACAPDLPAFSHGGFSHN
In short: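 Compounds were preincubated with purified enzyme in 50 mM sodium phosphate pH 7.4 at 37 °C for 30 min, then 200 uM Amplex Red, 1 mM benzylamine and 1 U/mL HRP were added. Resorufin fluorescence (ex 544/em 590 nm) was followed over 1-2 h; IC50 came from 4-parameter fits of signal-rate inhibition.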

[1] = molecular target: T2, recombinant human MAO-A (monoamine oxidase-A) (Homo sapiens, UniProt P21397); test: Activity on recombinant human MAO-A, Amplex Red method, 0.5 mM tyramine substrate; settings: 0.5 mM tyramine substrate, read-out: Inhibitory Activity (IC50, nM) MAO-A
T2 construct: purchased Sigma-Aldrich
T2 sequence (P21397 1-527): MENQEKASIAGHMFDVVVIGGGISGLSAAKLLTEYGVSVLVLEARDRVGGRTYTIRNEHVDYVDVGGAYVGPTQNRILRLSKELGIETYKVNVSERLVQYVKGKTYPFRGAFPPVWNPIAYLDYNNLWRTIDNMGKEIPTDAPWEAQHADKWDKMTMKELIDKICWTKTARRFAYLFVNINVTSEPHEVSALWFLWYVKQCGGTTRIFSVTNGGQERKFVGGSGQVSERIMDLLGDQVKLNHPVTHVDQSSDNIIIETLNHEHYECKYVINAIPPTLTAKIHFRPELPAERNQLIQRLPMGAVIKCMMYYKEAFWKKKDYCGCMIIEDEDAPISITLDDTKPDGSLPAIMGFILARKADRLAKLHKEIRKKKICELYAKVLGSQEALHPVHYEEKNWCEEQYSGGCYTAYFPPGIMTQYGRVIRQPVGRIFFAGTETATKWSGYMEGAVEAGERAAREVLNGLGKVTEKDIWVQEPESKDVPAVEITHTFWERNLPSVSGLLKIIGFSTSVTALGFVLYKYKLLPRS
In short: (§1)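 8-point, 1:3 dose-response, four-parameter logistic IC50 from reduction in fluorescence rate versus DMSO control. HRP/Amplex Red detection of H2O2 (ex 544, em 590 nm) after 30 min, 37 °C compound–enzyme preincubation in pH 7.4 phosphate buffer. MAO-A substrate: 0.5 mM tyramine; MAO-B: 1 mM benzylamine.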

[2] = molecular target: T3, recombinant human DAO (diamine oxidase) (Homo sapiens, UniProt P19801); test: Activity on recombinant human DAO, Amplex Red method, 1 mM putrescine substrate; settings: recombinant human DAO, 1 mM putrescine substrate; read-out: Inhibitory Activity (IC50, nM) DAO
T3 construct: purchased R&D systems
T3 sequence (P19801 20-751): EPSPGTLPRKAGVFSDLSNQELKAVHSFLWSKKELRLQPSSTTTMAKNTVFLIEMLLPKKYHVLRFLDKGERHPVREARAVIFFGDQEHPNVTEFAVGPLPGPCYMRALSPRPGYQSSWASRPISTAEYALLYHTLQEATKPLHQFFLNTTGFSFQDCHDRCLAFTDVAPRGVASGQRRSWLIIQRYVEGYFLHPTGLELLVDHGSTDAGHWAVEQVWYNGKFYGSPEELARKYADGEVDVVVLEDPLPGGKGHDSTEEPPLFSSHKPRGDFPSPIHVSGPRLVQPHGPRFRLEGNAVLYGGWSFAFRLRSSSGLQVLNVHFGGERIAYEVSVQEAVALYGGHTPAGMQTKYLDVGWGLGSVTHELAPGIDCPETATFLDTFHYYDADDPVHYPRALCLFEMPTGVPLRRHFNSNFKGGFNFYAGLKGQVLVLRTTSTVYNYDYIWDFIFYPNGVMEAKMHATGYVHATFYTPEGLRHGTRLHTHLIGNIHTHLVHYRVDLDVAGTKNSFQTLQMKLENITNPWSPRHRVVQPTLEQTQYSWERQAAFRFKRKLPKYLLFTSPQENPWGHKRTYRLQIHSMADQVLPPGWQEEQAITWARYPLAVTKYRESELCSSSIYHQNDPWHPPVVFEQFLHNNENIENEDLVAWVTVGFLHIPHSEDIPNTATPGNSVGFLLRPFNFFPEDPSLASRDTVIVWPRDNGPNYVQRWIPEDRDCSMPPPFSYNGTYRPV
In short: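 Inhibition of recombinant human DAO (diamine oxidase, R&D systems) was assessed with the Amplex Red Hydrogen Peroxide Assay Kit. Hydrogen peroxide produced from 1 mM putrescine was detected through an HRP-coupled reaction that converts Amplex Red into fluorescent resorufin, read at 544 nm excitation and 590 nm emission. IC50 values came from four-parameter logistic fits in GraphPad Prism.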

[3] = molecular target: T4, recombinant human MAO-B (monoamine oxidase-B) (Homo sapiens, UniProt P27338); test: Activity on recombinant human MAO-B, Amplex Red method, 1 mM benzylamine substrate; settings: 1 mM benzylamine substrate, read-out: Inhibitory Activity (IC50, nM) MAO-B
T4 construct: purchased Sigma-Aldrich
T4 sequence (P27338 1-520): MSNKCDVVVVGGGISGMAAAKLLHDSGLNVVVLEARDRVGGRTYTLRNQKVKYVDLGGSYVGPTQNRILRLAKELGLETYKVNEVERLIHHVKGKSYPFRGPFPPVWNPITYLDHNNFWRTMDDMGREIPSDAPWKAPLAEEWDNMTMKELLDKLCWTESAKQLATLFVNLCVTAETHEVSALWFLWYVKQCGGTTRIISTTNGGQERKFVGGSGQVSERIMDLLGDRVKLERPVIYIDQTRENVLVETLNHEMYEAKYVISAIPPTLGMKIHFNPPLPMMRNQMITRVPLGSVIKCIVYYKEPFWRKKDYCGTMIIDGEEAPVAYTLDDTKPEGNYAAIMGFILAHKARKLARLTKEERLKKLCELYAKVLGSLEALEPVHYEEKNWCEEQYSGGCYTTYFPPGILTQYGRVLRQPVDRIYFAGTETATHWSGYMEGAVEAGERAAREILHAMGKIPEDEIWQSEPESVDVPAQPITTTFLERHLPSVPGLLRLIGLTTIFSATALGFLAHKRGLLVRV
In short: as §1

| Compound | IC50 (recombinant human VAP-1) [nM] | IC50 [1] [nM] | IC50 [2] [nM] | IC50 [3] [nM] |
| --- | --- | --- | --- | --- |
| Cc1cc(-n2cnn(C/C(=C/F)CN)c2=O)ncc1-c1ccc2cn[nH]c2c1 [Example 160, 2-[(2E)-2-(aminomethyl)-3-fluoroprop-2-en-1-yl]-4-[5-(1H-indazol-6-yl)-4-methylpyridin-2-yl]-2,4-dihydro-3H-1,2,4-triazol-3-one] | 0.37 | 46200 | < 100 | 137 |
| Cc1cc(-n2cnn(C/C(=C/F)CN)c2=O)ncc1-c1ccc2sc(N)nc2c1 [Example 161, 4-[5-(2-amino-1,3-benzothiazol-5-yl)-4-methylpyridin-2-yl]-2-[(2E)-2-(aminomethyl)-3-fluoroprop-2-en-1-yl]-2,4-dihydro-3H-1,2,4-triazol-3-one hydrochloride] | 6.5 | 6240 | 2 | 3140 |
| NC/C(=C\F)Cn1ncn(-c2ncc(-c3ccc4c(c3)OCO4)cc2F)c1=O [Example 162, 2-[(2E)-2-(aminomethyl)-3-fluoroprop-2-en-1-yl]-4-[5-(1,3-benzodioxol-5-yl)-3-fluoropyridin-2-yl]-2,4-dihydro-3H-1,2,4-triazol-3-one hydrochloride] | 1.6 | 3140 | 1.6 | 17 |
| NC/C(=C\F)Cn1ncn(-c2ncc(-c3ccc4c(c3)NCC4=O)cc2F)c1=O [Example 163, 6-(6-{1-[(2E)-2-(aminomethyl)-3-fluoroprop-2-en-1-yl]-5-oxo-1,5-dihydro-4H-1,2,4-triazol-4-yl}-5-fluoropyridin-3-yl)-1,2-dihydro-3H-indol-3-one] | 0.56 | > 100000 | 1.3 | 740 |
| CS(=O)(=O)c1ccc(-c2ccnc(-n3cnn(C/C(=C/F)CN)c3=O)c2)cc1 [Example 165, 2-[(2E)-2-(aminomethyl)-3-fluoroprop-2-en-1-yl]-4-{4-[4-(methylsulfonyl)phenyl]pyridin-2-yl}-2,4-dihydro-3H-1,2,4-triazol-3-one] | 1.9 | > 100000 | < 30 | > 10000 |
| NC/C(=C\F)Cn1ncn(-c2cc(-c3ccc(-c4ccon4)cc3)ccn2)c1=O [Example 167, 2-[(2E)-2-(aminomethyl)-3-fluoroprop-2-en-1-yl]-4-{4-[4-(1,2-oxazol-3-yl)phenyl]pyridin-2-yl}-2,4-dihydro-3H-1,2,4-triazol-3-one] | 1 | > 100000 | < 30 | > 10000 |
| CC(=O)Nc1cc(-c2ccnc(-n3cnn(C/C(=C/F)CN)c3=O)c2)ccn1 [Example 168, N-(2′-{1-[(2E)-2-(aminomethyl)-3-fluoroprop-2-en-1-yl]-5-oxo-1,5-dihydro-4H-1,2,4-triazol-4-yl}-4,4′-bipyridin-2-yl)acetamide] | 0.39 | > 100000 | < 30 | 159 |
| NC/C(=C\F)Cn1ncn(-c2cc(-c3ccc(N4CCOCC4)nc3)ccn2)c1=O [Example 169, 2-[(2E)-2-(aminomethyl)-3-fluoroprop-2-en-1-yl]-4-[6-(morpholin-4-yl)-3,4′-bipyridin-2′-yl]-2,4-dihydro-3H-1,2,4-triazol-3-one] | 0.28 | > 100000 | < 30 | > 10000 |

These reach a lower IC50 (recombinant human VAP-1). Values come first.

| IC50 (recombinant human VAP-1) [nM] | IC50 [1] [nM] | IC50 [2] [nM] | IC50 [3] [nM] | Compound |
| --- | --- | --- | --- | --- |
| 0.18 | 9600 | < 100 | 1940 | Cc1cc(-n2cnn(C/C(=C/F)CN)c2=O)ncc1-c1cccc(-c2nc[nH]n2)c1 [Example 158, 2-[(2E)-2-(aminomethyl)-3-fluoroprop-2-en-1-yl]-4-{4-methyl-5-[3-(1H-1,2,4-triazol-3-yl)phenyl]pyridin-2-yl}-2,4-dihydro-3H-1,2,4-triazol-3-one] |
| 0.21 | 1510 | 1.8 | 74 | Cc1cc(-n2cnn(C/C(=C/F)CN)c2=O)ncc1-c1ccc2c(c1)OCO2 [Example 159, 2-[(2E)-2-(aminomethyl)-3-fluoroprop-2-en-1-yl]-4-[5-(1,3-benzodioxol-5-yl)-4-methylpyridin-2-yl]-2,4-dihydro-3H-1,2,4-triazol-3-one] |
| 0.25 | > 100000 | 1.4 | 183 | NC/C(=C\F)Cn1ncn(-c2ncc(-c3ccc4sc(N)nc4c3)cc2F)c1=O [Example 164, 4-[5-(2-amino-1,3-benzothiazol-5-yl)-3-fluoropyridin-2-yl]-2-[(2E)-2-(aminomethyl)-3-fluoroprop-2-en-1-yl]-2,4-dihydro-3H-1,2,4-triazol-3-one hydrochloride] |
| 0.23 | 20700 | < 30 | 2420 | CC(=O)Nc1ccc(-c2ccnc(-n3cnn(C/C(=C/F)CN)c3=O)c2)cc1 [Example 166, N-[4-(2-{1-[(2E)-2-(aminomethyl)-3-fluoroprop-2-en-1-yl]-5-oxo-1,5-dihydro-4H-1,2,4-triazol-4-yl}pyridin-4-yl)phenyl]acetamide] |
